The subject of one experiment is miR-15a. Description: miR-15a expression by qRT-PCR after 5-Aza-2′-deoxycytidine treatment. The class given is cell-based, human. The following applies: 5 µM (MEG-01, THP-1, OCI-AML3) or 2.5 µM (U-937, MV4-11), 4 days; in a few cell lines; vs untreated; FIG. 5D. The procedure: (§1) FIGS. 5A-5F show genetic and epigenomic screening of AML cell lines. […] TBP was used as a loading control (TATA-binding protein). […] In FIGS. 5C and 5E, at least 3 clones are analyzed for each cell line. The CpG island is pictured and each vertical bar represent a single CpG (depicted by *) or a single non-CpG site. Black (CpG site) and grey (non-CpG site) squares represent methylated CpG and white squares represent unmethylated CpG.
(§2) Total RNA was isolated from human samples and cell lines using TRIzol (Invitrogen, Carlsbad, CA), following the provided instructions. For qRT-PCR, TaqMan miRNA assays (miR-15a#000389, miR-15b#000390, miR-16#000391, (Thermo Fisher Scientific, Waltham, MA)) were used to detect mature miRNAs. For all RNAs from AML patients, reverse transcription reactions were performed using the TaqMan miRNA Reverse Transcription Kit (Applied Biosystems, Foster City, CA) and a RT primer pool by pooling all miRNA-specific stem-loop primers of interest. […]
(§3) MEG-01, THP-1 and OCI-AML3 cells were treated with 5 µM 5-Aza-2′-deoxycytidine (5-Aza-dC) (Sigma-Aldrich, St. Louis, MO), whereas U-937 and MV4-11 cells were treated with 2.5 µM 5-Aza-dC. After 4 days of treatments (fresh drug was added every 24 hour), cells were harvested and total RNA was isolated and analyzed for qRT-PCR analysis. […]
A general note: Quantitative PCR measures a nucleic acid by following its amplification.

The test system of the next experiment is miR-15b. Description: miR-15b expression by qRT-PCR after 5-Aza-2′-deoxycytidine treatment. The class given is cell-based, human. The following applies: 5 µM (MEG-01, THP-1, OCI-AML3) or 2.5 µM (U-937, MV4-11), 4 days; in a few cell lines; vs untreated; FIG. 5F. The method, then: as §1, §2, §3

Structures are written as SMILES.

In the case of `Nc1ncn([C@H]2C[C@H](O)[C@@H](CO)O2)c(=O)n1` [5-Aza-dC, 5-Aza-2′-deoxycytidine], the “expression of silenced miR-15a after treatment” value in the experiment with miR-15a is reported as “increased expression”. The “expression of silenced miR-15b after treatment” value in the experiment with miR-15b is “increased expression”.

The values are drawn from patent publication US20230183808A1, “Methods of Detecting and Treating Cancers Characterized by Loss of miR15 and miR16 Expression” (priority 2020, published 2023).
